Experimental findings from patent US10766869B2, “Triazoles for the treatment of demyelinating dieases” (Vertex Pharmaceuticals Incorporated, priority 2015, dated 2020) are described below.

Bounds are passed on as bounds.

For the assay, the system named is primary rat mixed cortical cells. As to the kind of experiment: In vitro myelination assay (MBP positive myelin strands, fold myelin pixels above background). It is filed as cell-based. Conditions: Rattus norvegicus, relative to baseline of no added compound, read-out: Fold myelin pixels above background; for fold induction at 1 µM: 1.0 μM compound; for fold induction at 10 µM: 10.0 μM compound. A digest of the protocol:
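Read-out is total MBP-positive myelin strand pixels per well, detected by custom ridge-tracing software and reported as fold over untreated baseline. Primary P1 rat mixed cortical cells received compound (1.0 or 10.0 μM) for 14 days, with medium half-replaced on days 6 and 10. Standard deviation was taken across all replicates.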

With `FC(F)c1cc(Nc2ncn(-c3cccc(C(F)(F)F)c3)n2)nc(N2CC(N3CCOCC3)C2)c1` [Compound 719, 4-(difluoromethyl)-6-(3-morpholinoazetidin-1-yl)-N-[1-[3-(trifluoromethyl)phenyl]-1,2,4-triazol-3-yl]pyridin-2-amine], the fold induction at 1 µM lay within 1 to 10 and the fold induction at 10 µM was at most 1.
For `Cc1cc(Nc2ncn(-c3ccc(F)c(F)c3)n2)cc(N2CC(N3CCOCC3)C2)c1` [Compound 720, 1-(3,4-difluorophenyl)-N-[3-methyl-5-(3-morpholinoazetidin-1-yl)phenyl]-1,2,4-triazol-3-amine], in that order: 1 to 10 and 10 to 100.
The matching figures for `Cc1cc(Nc2ncn(-c3cccc(F)c3)n2)cc(N2CC(N3CCOCC3)C2)c1` [Compound 721, 1-(3-fluorophenyl)-N-[3-methyl-5-(3-morpholinoazetidin-1-yl)phenyl]-1,2,4-triazol-3-amine]: 10 to 100 and at most 1.
`Cc1cc(Nc2ncn(-c3cc(F)cc(F)c3)n2)cc(N2C3CCC2COC3)c1` [Compound 722, 1-(3,5-difluorophenyl)-N-[3-methyl-5-(3-oxa-8-azabicyclo[3.2.1]octan-8-yl)phenyl]-1,2,4-triazol-3-amine]: the fold induction at 1 µM lay within 10 to 100 and the fold induction at 10 µM is 10 to 100.
On to `Fc1cc(F)cc(-n2cnc(Nc3cc(Cl)cc(N4CC(N5CCOCC5)C4)c3)n2)c1` [Compound 723, N-[3-chloro-5-(3-morpholinoazetidin-1-yl)phenyl]-1-(3,5-difluorophenyl)-1,2,4-triazol-3-amine], for which the fold induction at 1 µM is 10 to 100 and the fold induction at 10 µM lay in the range of 100 to 1000.
As for `Cc1cc(Nc2ncn(-c3cc(F)cc(F)c3)n2)cc(N2CCOC3(COC3)C2)c1` [Compound 724, 1-(3,5-difluorophenyl)-N-[3-(2,5-dioxa-8-azaspiro[3.5]nonan-8-yl)-5-methyl-phenyl]-1,2,4-triazol-3-amine], the fold induction at 1 µM was 1 to 10 and the fold induction at 10 µM was in the range of 1 to 10.
Take `Cc1cc(Nc2ncn(-c3cccc(C(F)F)c3)n2)cc(N2CCC(N3CCOCC3)CC2)c1` [Compound 725, 1-[3-(difluoromethyl)phenyl]-N-[3-methyl-5-(4-morpholino-1-piperidyl)phenyl]-1,2,4-triazol-3-amine]: the fold induction at 1 µM fell in the range of 10 to 100 and the fold induction at 10 µM was in the range of 10 to 100.
As for `Fc1cc(F)cc(-n2cnc(Nc3cc(N4CCN(C5COC5)CC4)cc(N4CCN(C5COC5)CC4)n3)n2)c1` [Compound 726, N-[1-(3,5-difluorophenyl)-1,2,4-triazol-3-yl]-4,6-bis[4-(oxetan-3-yl)piperazin-1-yl]pyridin-2-amine], the fold induction at 1 µM was in the range of 1 to 10 and the fold induction at 10 µM was 1 to 10.
Turning to `Cc1cc(Nc2ncn(-c3cc(F)cc(F)c3)n2)cc(N2CC3CC2CO3)c1` (centres unmarked) [Compound 727, 1-(3,5-difluorophenyl)-N-[3-methyl-5-(2-oxa-5-azabicyclo[2.2.1]heptan-5-yl)phenyl]-1,2,4-triazol-3-amine], the fold induction at 1 µM fell in the range of 10 to 100 and the fold induction at 10 µM was at most 1.
For `Fc1ccc(-n2cnc(Nc3cc(C(F)(F)F)cc(N4CCN(C5COC5)CC4)n3)n2)cc1` [Compound 728, N-[1-(4-fluorophenyl)-1,2,4-triazol-3-yl]-6-[4-(oxetan-3-yl)piperazin-1-yl]-4-(trifluoromethyl)pyridin-2-amine], in that order: 10 to 100 and at most 1.
The matching figures for `COCC1CCN(c2cc(C(F)F)cc(Nc3ncn(-c4cc(F)cc(F)c4)n3)n2)CC1` [Compound 729, 4-(difluoromethyl)-N-[1-(3,5-difluorophenyl)-1,2,4-triazol-3-yl]-6-[4-(methoxymethyl)-1-piperidyl]pyridin-2-amine]: at most 1 and 10 to 100.
For `Cc1cc(Nc2ncn(-c3cc(F)cc(F)c3)n2)cc(N2CC(N3CCO[C@@H](C)C3)C2)c1` [Compound 730, 1-(3,5-difluorophenyl)-N-[3-methyl-5-[3-[(2S)-2-methylmorpholin-4-yl]azetidin-1-yl]phenyl]-1,2,4-triazol-3-amine], in that order: 10 to 100 and 10 to 100.
As to `Cc1cc(Nc2ncn(-c3cc(F)cc(F)c3)n2)nc(N2CCN(C)CC2)c1` [Compound 731, N-[1-(3,5-difluorophenyl)-1,2,4-triazol-3-yl]-4-methyl-6-(4-methylpiperazin-1-yl)pyridin-2-amine], the fold induction at 1 µM lay within 10 to 100 and the fold induction at 10 µM was at most 1.
The matching figures for `Fc1cc(F)cc(-n2cnc(Nc3cc(C(F)F)cc(N4CC(N5CCOCC5)C4)n3)n2)c1` [Compound 732, 4-(difluoromethyl)-N-[1-(3,5-difluorophenyl)-1,2,4-triazol-3-yl]-6-(3-morpholinoazetidin-1-yl)pyridin-2-amine]: 1 to 10 and 1 to 10.
For `Fc1cc(F)cc(-n2cnc(Nc3cc(N4CCN(C5COC5)CC4)cc(Cl)n3)n2)c1` [Compound 733, 6-chloro-N-[1-(3,5-difluorophenyl)-1,2,4-triazol-3-yl]-4-[4-(oxetan-3-yl)piperazin-1-yl]pyridin-2-amine], in that order: 1 to 10 and 1 to 10.
For `CCc1cc(Nc2ncn(-c3cccc(C#N)c3)n2)cc(N2CCN(C3COC3)CC2)c1` [Compound 734, 3-[3-[3-ethyl-5-[4-(oxetan-3-yl)piperazin-1-yl]anilino]-1,2,4-triazol-1-yl]benzonitrile], in that order: 1 to 10 and at most 1.
For `COc1ccc(-n2cnc(Nc3cc(C)cc(N4CC(N5CCOCC5)C4)c3)n2)cc1F` [Compound 735, 1-(3-fluoro-4-methoxy-phenyl)-N-[3-methyl-5-(3-morpholinoazetidin-1-yl)phenyl]-1,2,4-triazol-3-amine], the fold induction at 1 µM lay within 1 to 10 and the fold induction at 10 µM is 1 to 10.
In the case of `CCc1cc(Nc2ncn(-c3cccc(C(F)F)c3)n2)cc(N2CCN(C3COC3)CC2)c1` [Compound 736, 1-[3-(difluoromethyl)phenyl]-N-[3-ethyl-5-[4-(oxetan-3-yl)piperazin-1-yl]phenyl]-1,2,4-triazol-3-amine], the fold induction at 1 µM was in the range of 10 to 100 and the fold induction at 10 µM is at most 1.
The matching figures for `N#Cc1cc(Nc2ncn(-c3cccc(F)c3)n2)cc(N2CCOCC2)c1` [Compound 737, 3-[[1-(3-fluorophenyl)-1,2,4-triazol-3-yl]amino]-5-morpholino-benzonitrile]: 10 to 100 and 10 to 100.
The matching figures for `Cc1cc(Nc2ncn(-c3cc(F)cc(F)c3)n2)cc(N(C)CCN2CCOCC2)c1` [Compound 738, N3-[1-(3,5-difluorophenyl)-1,2,4-triazol-3-yl]-N1,5-dimethyl-N1-(2-morpholinoethyl)benzene-1,3-diamine]: 10 to 100 and at most 1.
For `Cc1cc(N2CC(N3CCOCC3)C2)cc(Nc2ncn(-c3cc(F)cc(F)c3)n2)c1C` [Compound 739, 1-(3,5-difluorophenyl)-N-[2,3-dimethyl-5-(3-morpholinoazetidin-1-yl)phenyl]-1,2,4-triazol-3-amine], in that order: 10 to 100 and 10 to 100.
Take `Cc1cc(Nc2ncn(-c3cnccn3)n2)cc(C2(C)CNC(=O)O2)c1` (centres unmarked) [Compound 741, 5-methyl-5-[3-methyl-5-[(1-pyrazin-2-yl-1,2,4-triazol-3-yl)amino]phenyl]oxazolidin-2-one]: the fold induction at 1 µM was 10 to 100 and the fold induction at 10 µM was in the range of 1 to 10.
For the compound `Cc1cc(Nc2ncn(-c3cc(F)cc(F)c3)n2)cc(N2CC(N3CC4CC(C3)O4)C2)c1` [Compound 742, 1-(3,5-difluorophenyl)-N-[3-methyl-5-[3-(6-oxa-3-azabicyclo[3.1.1]heptan-3-yl)azetidin-1-yl]phenyl]-1,2,4-triazol-3-amine], the fold induction at 1 µM fell in the range of 10 to 100 and the fold induction at 10 µM is at most 1.
With `Cc1cc(Nc2ncn(-c3cc(F)cc(F)c3)n2)c(F)c(N2CC3(COC3)C2)c1` [Compound 743, 1-(3,5-difluorophenyl)-N-[2-fluoro-5-methyl-3-(2-oxa-6-azaspiro[3.3]heptan-6-yl)phenyl]-1,2,4-triazol-3-amine], the fold induction at 1 µM fell in the range of 1 to 10 and the fold induction at 10 µM fell in the range of 10 to 100.
For `Cc1cc(Nc2ncn(-c3cc(F)cc(F)c3)n2)nc(C2CCNCC2)c1` [Compound 744, N-[1-(3,5-difluorophenyl)-1,2,4-triazol-3-yl]-4-methyl-6-(4-piperidyl)pyridin-2-amine], in that order: 1 to 10 and at most 1.
The matching figures for `Cc1cc(Nc2ncn(-c3cc(F)cc(F)c3)n2)cc(N2CCC(N3CC(F)(F)C3)CC2)c1` [Compound 745, N-[3-[4-(3,3-difluoroazetidin-1-yl)-1-piperidyl]-5-methyl-phenyl]-1-(3,5-difluorophenyl)-1,2,4-triazol-3-amine]: 10 to 100 and at most 1.
The matching figures for `Cc1cc(Nc2ncn(-c3cc(F)cc(F)c3)n2)cc(N2CC(N3C4CCC3COC4)C2)c1` [Compound 746, 1-(3,5-difluorophenyl)-N-[3-methyl-5-[3-(3-oxa-8-azabicyclo[3.2.1]octan-8-yl)azetidin-1-yl]phenyl]-1,2,4-triazol-3-amine]: 10 to 100 and 10 to 100.
In the case of `Cc1cc(Nc2ncn(-c3cc(F)cc(F)c3)n2)cc(N2CCN(CCCN(C)C)CC2)c1` [Compound 747, 1-(3,5-difluorophenyl)-N-[3-[4-[3-(dimethylamino)propyl]piperazin-1-yl]-5-methyl-phenyl]-1,2,4-triazol-3-amine], the fold induction at 1 µM was at most 1 and the fold induction at 10 µM was at most 1.
